Data on 23 molecules can be found in US20230219965A1 (KSQ Therapeutics, Inc., priority 2020, published 2023).

Series [1] deals with USP1/UAF1 enzyme (Homo sapiens, UniProt O94782). In words: USP1/UAF1 deubiquitination assay (ubiquitin-rhodamine 110 substrate). The series is classed as biochemical. The conditions noted are these: read-out: USP1 IC50 (Ub-Rho). A digest of the protocol: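 0.05 nM USP1/UAF1 was preincubated 10 min with compounds (dose response from 10 μM) in 50 mM Tris-HCl pH 7.8, 0.5 mM EDTA, 0.01% BSA, 1 mM DTT, 0.01% Tween-20. 150 nM ubiquitin-rhodamine 110 started the reaction, read kinetically 30 min at Ex480/Em540; IC50 by four-parameter fit versus no-enzyme and DMSO controls.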
USP1/UAF1 enzyme, sequence (O94782 whole entry): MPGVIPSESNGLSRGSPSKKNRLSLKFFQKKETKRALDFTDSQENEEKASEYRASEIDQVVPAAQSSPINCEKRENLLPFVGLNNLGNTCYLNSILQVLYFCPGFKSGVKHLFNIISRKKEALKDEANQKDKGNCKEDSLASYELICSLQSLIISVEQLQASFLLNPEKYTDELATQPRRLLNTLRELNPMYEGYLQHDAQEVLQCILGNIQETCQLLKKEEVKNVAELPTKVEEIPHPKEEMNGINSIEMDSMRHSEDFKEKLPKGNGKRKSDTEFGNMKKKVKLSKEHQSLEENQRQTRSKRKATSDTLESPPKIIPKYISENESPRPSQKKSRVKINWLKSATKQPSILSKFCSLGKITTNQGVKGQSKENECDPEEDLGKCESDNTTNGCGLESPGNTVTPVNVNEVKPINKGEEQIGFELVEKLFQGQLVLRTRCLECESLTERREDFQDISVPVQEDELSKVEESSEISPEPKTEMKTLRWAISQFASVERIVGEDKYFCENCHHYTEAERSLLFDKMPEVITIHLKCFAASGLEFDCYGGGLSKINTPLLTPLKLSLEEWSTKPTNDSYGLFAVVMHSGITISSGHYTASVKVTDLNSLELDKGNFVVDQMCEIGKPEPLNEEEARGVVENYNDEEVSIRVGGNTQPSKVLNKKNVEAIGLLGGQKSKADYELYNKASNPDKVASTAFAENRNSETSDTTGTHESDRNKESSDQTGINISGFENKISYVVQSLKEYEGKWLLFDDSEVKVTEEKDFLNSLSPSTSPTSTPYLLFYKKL
USP1/UAF1 enzyme, sequence (Q8TAF3 whole entry partner): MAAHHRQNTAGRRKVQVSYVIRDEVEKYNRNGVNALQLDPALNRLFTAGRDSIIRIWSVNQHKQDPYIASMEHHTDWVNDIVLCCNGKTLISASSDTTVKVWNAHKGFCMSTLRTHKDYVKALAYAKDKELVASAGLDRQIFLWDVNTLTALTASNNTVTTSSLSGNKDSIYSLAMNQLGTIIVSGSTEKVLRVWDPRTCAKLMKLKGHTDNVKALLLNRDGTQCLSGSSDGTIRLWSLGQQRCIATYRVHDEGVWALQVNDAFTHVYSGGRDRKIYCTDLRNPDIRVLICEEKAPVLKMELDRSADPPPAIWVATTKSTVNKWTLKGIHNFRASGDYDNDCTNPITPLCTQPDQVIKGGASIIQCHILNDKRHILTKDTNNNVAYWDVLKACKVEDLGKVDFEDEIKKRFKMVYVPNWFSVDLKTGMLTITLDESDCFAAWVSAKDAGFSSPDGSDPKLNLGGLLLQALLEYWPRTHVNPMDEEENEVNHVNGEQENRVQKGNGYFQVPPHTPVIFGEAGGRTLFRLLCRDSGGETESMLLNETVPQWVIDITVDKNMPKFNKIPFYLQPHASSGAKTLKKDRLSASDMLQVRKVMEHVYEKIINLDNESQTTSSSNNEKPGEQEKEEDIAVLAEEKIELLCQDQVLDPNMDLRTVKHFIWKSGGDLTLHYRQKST

A short description of series [2]: ADME solubility determination in PBS at pH 2.0 and pH 7.4. The series is classed as physicochemical. Particulars: phosphate buffered saline, 25 °C, thermodynamic from solid. A digest of the protocol: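 Dried 10 mM DMSO stock residues taken up in PBS pH 7.4 or pH 2.0, shaken 24 h at 25° C. After centrifugation, supernatant quantified by LC-MS/MS against a standard of known concentration, with a dilution factor applied.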

Series [3] in a line: Liver microsomal metabolic stability, human liver microsomes (HLM). Particulars: human, liver microsomes.
Series [4] concerns Ub-PCNA levels in the nucleus of ES2 cells (USP1 activity). As to the kind of experiment: ES2 Ub-PCNA immunofluorescence (IF) assay. The series is classed as cell-based. The conditions noted are these: Homo sapiens, ES-2; ES2 cells, 3 hours, Ub-PCNA immunofluorescence; read-out: USP1 IC50 (Ub-PCNA). In outline:
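Cells plated overnight, then compound-treated for 3 h at 37° C (0.3% DMSO final), methanol-fixed and stained with anti-Ub-PCNA plus DAPI. Per-nucleus Ub-PCNA intensity imaged; cells above the 95% cutoff of untreated wells counted as positive, and percent positive cells used to derive AC50.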

Series [5] is described as follows: Liver microsomal metabolic stability, rat liver microsomes (RLM). The conditions noted are these: rat, liver microsomes, t1/2 (min) in RLM, 1 μM compound, 1 mg/mL microsomes, NADPH.
Setting [6] is: pH 2, aqueous buffer, PBS pH 2.0, 25° C., read-out: Solubility at pH 2.0.
The mark [7] stands for this setting: pH 7.4, aqueous buffer, PBS pH 7.4, 25° C., read-out: Solubility at pH 7.4.

Like-named read-outs stand apart in the source and are kept apart here.

As to `Cc1cnn(C(C)C)c1-c1nc2n(n1)CCC(=O)N2Cc1ccc(-c2nc(C(F)(F)F)cn2C(C)C)cc1` [Example 38], the IC50 in series [1] and in series [4] was less than 100 nM in each case. For the same molecule, the solubility at 24 h in series [2] (setting [6]) and in series [2] (setting [7]) was less than 10 µM in each case. The half-life at 1 μM in series [3] and in series [5] was less than 25 min throughout.

For `CC(C)n1ncc(Cl)c1-c1nc2n(n1)CCC(=O)N2Cc1ccc(-c2nc(C(F)(F)F)cn2C)cc1` [Example 39], the IC50 in series [1] and in series [4] was less than 100 nM in each case. For the same molecule, the solubility at 24 h in series [2] (setting [6]) and in series [2] (setting [7]) was less than 10 µM in each case. Besides, the half-life at 1 μM in series [3] and in series [5] was more than 25 min throughout.

`CC(C)n1cc(C(F)(F)F)nc1-c1ccc(CN2C(=O)CCn3nc(-c4c(Cl)cnn4C(C)C)nc32)cc1F` [Example 40]: the IC50 in series [1] was less than 100 nM; in series [4], 100 to 500 nM. For the same molecule, the solubility at 24 h in series [2] (setting [6]) and in series [2] (setting [7]) was less than 10 µM each time. Further, the half-life at 1 μM in series [3] and in series [5] was more than 25 min each time.

`CC(C)n1cc(C(F)(F)F)nc1-c1ccc(CN2C(=O)CCn3nc(-c4c(Cl)cnn4C(C)C)nc32)cc1` [Example 41]: the IC50 in series [1] and in series [4] was less than 100 nM in each case. Besides, the solubility at 24 h in series [2] (setting [6]) and in series [2] (setting [7]) was less than 10 µM throughout. Moreover, the half-life at 1 μM in series [3] and in series [5] was more than 25 min in each case.

Consider `CCn1cc(C(F)(F)F)nc1-c1ccc(CN2C(=O)CCn3nc(-c4c(Cl)cnn4C(C)C)nc32)cc1F` [Example 42], for which the IC50 in series [1] and in series [4] was less than 100 nM throughout. Further, the solubility at 24 h in series [2] (setting [6]) and in series [2] (setting [7]) was less than 10 µM each time. Also, the half-life at 1 μM in series [3] and in series [5] was more than 25 min throughout.

On to `COc1ncnc(C2CC2)c1-c1nc2n(n1)CCC(=O)N2Cc1ccc(-c2nc(C(F)(F)F)cn2C)cc1` [Example 43], for which the IC50 was less than 100 nM in series [1] and 100 to 500 nM in series [4]. Further, the results for the solubility at 24 h in series [2] (setting [6]) and in series [2] (setting [7]) were not below 10 µM and less than 10 µM, respectively. Besides, the half-life at 1 μM in series [3] and in series [5] was more than 25 min throughout.

Regarding `CCn1cc(C(F)(F)F)nc1-c1ccc(CN2C(=O)CCn3nc(-c4c(OC)ncnc4C4CC4)nc32)cc1F` [Example 44], the IC50 in series [1] and in series [4] was less than 100 nM in each case. For the same molecule, the solubility at 24 h in series [2] (setting [6]) and in series [2] (setting [7]) was less than 10 µM throughout. For the same molecule, the half-life at 1 μM in series [3] and in series [5] was more than 25 min in each case.

Regarding `COc1cc(CN2C(=O)CCn3nc(-c4c(OC)ncnc4C(C)C)nc32)ccc1-c1nc(C(F)(F)F)cn1C(C)C` [Example 46], the IC50 in series [1] and in series [4] was 100 to 500 nM throughout. For the same molecule, the solubility at 24 h in series [2] (setting [6]) and in series [2] (setting [7]) was not below 10 µM each time. Further, the half-life at 1 μM in series [3] and in series [5] was more than 25 min in each case.

Regarding `CCn1cc(C(F)(F)F)nc1-c1ccc(CN2c3cc(-c4c(OC)ncnc4C4CC4)nn3CCC2C)cc1F` (stereo not drawn) [Example 49], the IC50 in series [1] and in series [4] was less than 100 nM in each case. Besides, the figures for the solubility at 24 h in series [2] (setting [6]) and in series [2] (setting [7]) were not below 10 µM and less than 10 µM, respectively. The half-life at 1 μM in series [3] and in series [5] was less than 25 min throughout.

`CC1CCn2nc(-c3c(Cl)cnn3C(C)C)cc2N1Cc1ccc(-c2nc(C(F)(F)F)cn2C(C)C)c(F)c1` (stereo not drawn) [Example 50]: the IC50 in series [1] and in series [4] was less than 100 nM throughout. Besides, the solubility at 24 h in series [2] (setting [6]) and in series [2] (setting [7]) was less than 10 µM each time. For the same molecule, the half-life at 1 μM in series [3] and in series [5] was less than 25 min throughout.

For `Cc1cnn(C(C)C)c1-c1cc2n(n1)CCCN2Cc1ccc(-c2nc(C(F)(F)F)nn2C)cc1` [Example 53], the IC50 in series [1] was less than 100 nM; in series [4], 100 to 500 nM. In addition, the solubility at 24 h in series [2] (setting [6]) and in series [2] (setting [7]) was less than 10 µM in each case. For the same molecule, the half-life at 1 μM in series [3] and in series [5] was less than 25 min each time.

For the molecule `Cc1cnn(C(C)C)c1-c1cc2n(n1)CCCN2Cc1ccc(-c2nc(C(F)(F)F)cn2C(C)C)cc1` [Example 54], the IC50 in series [1] and in series [4] was less than 100 nM each time. For the same molecule, the solubility at 24 h in series [2] (setting [6]) is not below 10 µM; in series [2] (setting [7]), less than 10 µM. Moreover, the half-life at 1 μM in series [3] and in series [5] was less than 25 min each time.

With `Cc1cnn(C(C)C)c1-c1cc2n(n1)CCCN2Cc1ccc(-c2nc(C(F)(F)F)cn2C)c(F)c1` [Example 55], the 50% inhibitory concentration (IC50) in series [1] and in series [4] was less than 100 nM throughout. For the same molecule, the solubility at 24 h in series [2] (setting [6]) is not below 10 µM; in series [2] (setting [7]), less than 10 µM. Besides, the half-life at 1 μM in series [3] and in series [5] was less than 25 min throughout.

`COc1cc(C(F)(F)F)nn1-c1ccc(CN2CCCn3nc(-c4c(C)cnn4C(C)C)cc32)cc1F` [Example 57]: the IC50 in series [1] and in series [4] was less than 100 nM each time. Moreover, the solubility at 24 h in series [2] (setting [6]) and in series [2] (setting [7]) was less than 10 µM each time. The half-life at 1 μM in series [3] and in series [5] was less than 25 min throughout.

Regarding `COc1ncnc(C2CC2)c1-c1cc2n(n1)CCCN2Cc1ccc(-c2nc(C(F)(F)F)cn2C(C)C)cc1` [Example 58], the IC50 in series [1] and in series [4] was less than 100 nM each time. The solubility at 24 h in series [2] (setting [6]) is not below 10 µM; in series [2] (setting [7]), less than 10 µM. Further, the half-life at 1 μM in series [3] and in series [5] was less than 25 min in each case.

For `CC(C)n1cc(C(F)(F)F)nc1-c1ccc(CN2CCCn3nc(-c4c(Cl)cnn4C(C)C)cc32)cc1F` [Example 59], the IC50 in series [1] and in series [4] was less than 100 nM throughout. The solubility at 24 h in series [2] (setting [6]) and in series [2] (setting [7]) was less than 10 µM throughout. In addition, the half-life at 1 μM in series [3] and in series [5] was less than 25 min each time.

On to `CC(C)n1ncc(Cl)c1-c1cc2n(n1)CCCN2Cc1ccc(-c2nc(C(F)(F)F)cn2C)c(F)c1` [Example 61], for which the IC50 in series [1] and in series [4] was less than 100 nM each time. For the same molecule, the solubility at 24 h in series [2] (setting [6]) and in series [2] (setting [7]) was less than 10 µM throughout. Further, the half-life at 1 μM in series [3] and in series [5] was less than 25 min throughout.

In the case of `CC(C)n1ncc(Cl)c1-c1cc2n(n1)CCCN2Cc1ccc(-c2nc(C(F)(F)F)cn2CCF)cc1` [Example 62], the IC50 in series [1] and in series [4] was less than 100 nM in each case. The solubility at 24 h in series [2] (setting [6]) and in series [2] (setting [7]) was less than 10 µM in each case. In addition, the half-life at 1 μM in series [3] and in series [5] was less than 25 min each time.

Take `COc1ncnc(C2CC2)c1-c1cc2n(n1)CCCN2Cc1ccc(-c2nc(C(F)(F)F)cn2C(C)C)c(F)c1` [Example 63]: the IC50 in series [1] and in series [4] was less than 100 nM each time. For the same molecule, the values for the solubility at 24 h in series [2] (setting [6]) and in series [2] (setting [7]) were not below 10 µM and less than 10 µM, respectively. For the same molecule, the half-life at 1 μM in series [3] and in series [5] was less than 25 min in each case.

On to `CCn1cc(C(F)(F)F)nc1-c1ccc(CN2CCCn3nc(-c4c(OC)ncnc4C4CC4)cc32)cc1F` [Example 64], for which the IC50 in series [1] and in series [4] was less than 100 nM throughout. The solubility at 24 h in series [2] (setting [6]) was not below 10 µM; in series [2] (setting [7]), less than 10 µM. The half-life at 1 μM in series [3] and in series [5] was less than 25 min throughout.

Turning to `CCn1cc(C(F)(F)F)nc1-c1ccc(C(C)N2CCCn3nc(-c4c(Cl)cnn4C(C)C)cc32)cc1` (stereo not drawn) [Example 65], the IC50 in series [1] and in series [4] was less than 100 nM throughout. Moreover, the solubility at 24 h in series [2] (setting [6]) and in series [2] (setting [7]) was less than 10 µM each time. In addition, the half-life at 1 μM in series [3] and in series [5] was less than 25 min throughout.

On to `CCn1cc(C(F)(F)F)nc1-c1ccc(C(C)N2CCCn3nc(-c4c(OC)ncnc4C4CC4)cc32)cc1` (stereo not drawn) [Example 66], for which the IC50 in series [1] and in series [4] was less than 100 nM in each case. For the same molecule, the solubility at 24 h is not below 10 µM in series [2] (setting [6]) and less than 10 µM in series [2] (setting [7]). In addition, the half-life at 1 μM in series [3] and in series [5] was less than 25 min each time.

Regarding `Cc1cnn(C(C)C)c1-c1cc2n(n1)CCC(=O)N2Cc1ccc(-c2nc(C(F)(F)F)c[nH]2)cc1` [Example 70], the IC50 was 100 to 500 nM in series [1] and more than 500 nM in series [4]. Besides, the solubility at 24 h in series [2] (setting [6]) and in series [2] (setting [7]) was less than 10 µM in each case. Further, the half-life at 1 μM in series [3] and in series [5] was less than 25 min throughout.
